Assay results taken from patent US10143638B2, “Method of treating skin with ingenol mebutate” (LEO Laboratories Limited, priority 2009, dated 2018).

What was measured:
HAS2 = HAS2 gene expression by dermal fibroblasts (qPCR); format: cell-based, human; details: non-significant (p>0.05)
Source text: A normal adult skin biopsy (6 mm) was obtained (n=1), with informed consent, from an individual attending the Oral Surgery Clinic, School of Dentistry, Wales College of Medicine, Cardiff. Following the application of a local anaesthetic, the dermal biopsy was collected and adult dermal fibroblast cultures established by single cell suspension technique, following enzymic degradation of the specimen. This technique has previously been reliably used to establish viable primary cultures of both oral and dermal fibroblasts in vitro (Cook et al, 2000; Stephens et al, 2001; 2003). Dermal fibroblasts were cultured in Fibroblast-Serum Containing Medium, containing Dulbecco's Modified Eagle's Medium (DMEM), supplemented with L-glutamine (2 mM), antibiotics (100 U/ml) penicillin G sodium, […] streptomycin sulphate and 0.25 μg/ml amphotericin B) and 10% foetal calf serum (all purchased from Invitrogen Ltd., Paisley, U.K.). Dermal fibroblast cultures were maintained at 37° C., in a 5% CO2/95% air atmosphere, with the culture medium being changed every 2-3 days. Dermal fibroblasts were used between) passage 7-17, for all experiments.
Following trypsinization, dermal fibroblasts were seeded in 24-well tissue culture plates, in PEP005-free, Fibroblast-Serum Containing Medium (1 ml), at a cell density of 2.5×10^4 cell/well. Dermal fibroblasts were maintained at 37° C., in a 5% CO2/95% air atmosphere, overnight. At this stage, the culture medium was replaced with Fibroblast-Serum Containing Medium (600 μl), containing 0 μg/ml, 0.01 μg/ml, 0.1 μg/ml, 1 μg/ml, 10 μg/ml or 100 μg/ml PEP005, +/−TGF-β1 (10 ng/ml) (three culture wells per PEP005 concentration). A control was also established, consisting of cells in Fibroblast-Serum Containing Medium, containing 1% DMSO. The dermal fibroblasts were maintained at 37° C., in a 5% CO2/95% air atmosphere, for 24 h or 72 h, prior to washing in PBS (3×1 ml) and Trizol® Reagent (250 μl) added to the cells, for 5 min at room temperature, to induce cell lysis. RNA was extracted by the phenol-chloroform method, as described above, while a cDNA library was generated via random hexamer RT, as described above. RNA (1 μg) was added to 100 µM random hexamer (1 μl), 5×RT Buffer (4 μl), 2.5 mM Deoxynucleoside Triphosphates (dNTPs, 5 μl), 2 μl DTT and Nuclease-Free Water, were added to the reaction (total volume, 20 μl). To denature the RNA, reaction tubes were placed in a GeneAmp PCR System 9700 (Applied Biosystems, Cheshire, U.K.) and heated for 5 min/95° C., prior to cooling to 4° C. Superscript (1 μl) and RNAsin® Ribonuclease Inhibitor (1 μl, Promega, Hampshire, U.K.) were added to each tube, and the tubes subjected to […] at 20° C. for 10 min, 42° C. for 1 h and 95° C. for 5 min, prior to storage at 4° C., until required. As a negative control, RT was also performed, with Nuclease-Free Water replacing the RNA sample.
qPCR was performed, as described above, with the probe and primers for HAS1, HAS2 and HAS3 (target genes) and the 18s ribosomal RNA (reference gene), designed and supplied by Applied Biosystems. PCR was performed in a final volume of 20 μl/sample, with each reaction mix consisting of cDNA (1 μl), target gene primers and probe (1 μl), Taqman® FAST Universal PCR Master Mix (10 μl, Applied Biosystems), and Nuclease-Free Water (8 μl). PCR amplification was performed, using an initial cycle of 95° C. for 1 s, followed by 40 cycles of 60° C. for 20 s. A cDNA-free control was also included. Again, the comparative CT method was used for relative quantification of gene expression. Each experiment was performed on three separate occasions.

[1] = Stability of PEP005/DMSO stock solution; format: physicochemical; details: 10 mg/ml in DMSO, stored at 4° C.
Experimental: PEP005, obtained from Peplin in 20 mg batches, was stored at 4° C. When required, the PEP005 was solubilized in dimethyl sulphoxide (DMSO, >99.9%, Sigma Chemical Company, Dorset, U.K.), at a concentration of 10 mg/ml. […] Prior to use, the PEP005/DMSO stock solution was removed from 4° C. storage and warmed to room temperature. The required volumes of PEP005/DMSO were aliquoted into a poly-propylene vessel and the PEP005/DMSO diluted to the required concentration (typically 0.01 μg/ml, 0.1 μg/ml, 1 μg/ml, 10 μg/ml and 100 μg/ml) in Fibroblast-Serum Containing Medium (for dermal fibroblast cultures, Section 3.1), with fresh PEP005/culture medium solutions being prepared daily, at the various concentrations above, due to solution stability. Prior to discarding PEP005/culture medium solutions, at least two volumes of 0.1% sodium hydroxide (Sigma Chemical Company), in 95% ethanol/5% methanol (both from Thermo Fisher Scientific, Leicestershire, U.K.), was added to each solution, to deactivate.

C/C=C(/C)C(=O)O[C@H]1C(C)=C[C@]23C(=O)[C@@H](C=C(CO)[C@@H](O)[C@]12O)[C@H]1[C@@H](C[C@H]3C)C1(C)C [PEP005, ingenol-3-angelate]
HAS2 gene expression (HAS2; PEP005 0.01-100 μg/ml plus TGF-β1 (10 ng/ml), 72 h): general down-regulation
HAS2 expression (HAS2; PEP005 0.1-10 μg/ml plus TGF-β1 (10 ng/ml), 24 h): up-regulation
HAS2 expression (HAS2; PEP005 0.1-10 μg/ml, absence of TGF-β1, 24 h): stimulatory effect
HAS2 gene expression (HAS2; PEP005 0.1-10 μg/ml, absence of TGF-β1, 72 h): major up-regulation
stability of PEP005/DMSO stock solution [1]: stable for several months
